# Test results published in patent US20240217988A1, “ESTROGEN RECEPTOR ANTAGONIST” (Shenzhen Forward Pharmaceuticals Co., Limited, priority 2021, published 2024).
# How the values were obtained:
# [1] = tested on: Human breast cancer cells MCF-7; test: MCF-7 cell proliferation experiment; type: cell-based; details: MCF-7 cells, 72 hours, Cell Titer-Glo
# Procedure: Test Example 2: MCF-7 Cell Proliferation Experiment
# Human breast cancer cells MCF-7 (HTB-22, purchased from ATCC) were inoculated into a 96-well plate. The culture medium was an MEM (Hyclone, SH30024.01B) culture medium containing 10% of FBS (Gibco, 10099-141), 1% of pyruvic acid (Sigma, S8636), and 1% of nonessential amino acid (Sigma, M7145), and the inoculation density was 4,000 cells/well. The cells were cultured at 37° C., 5% CO2. The compound was prepared into a 20 mM stock solution, which was subjected to gradient dilution to a final concentration of […] with 100% DMSO (Sigma, D2650) and then diluted 20 folds with a culture medium containing 2% of FBS. After 24 hours of culture, the culture medium was removed, 90 μL of a culture medium containing 2% of FBS and 10 μL of drug were added to each well, while 10 μL of DMSO was added to the control group, and they were gently shaken and mixed. The blank group only contained 100 μL of 2% FBS culture medium. They were placed in an incubator and cultured at 37° C., 5% CO2. After 72 hours, 50 μL of mixed Cell Titer-Glo (Promega, G7571) was added. They were shaken and mixed uniformly, and placed at room temperature for 10 min. The chemiluminescence signal value was determined. The negative control was 0.5% DMSO well.
# [2] = Stability in human liver microsomes in vitro; type: in vitro ADME; details: for microsomal CLint: read-out: CLint(mic)
# Procedure: Test Example 4: Test for Stability in Human Liver Microsomes In Vitro Eight 96-well incubation plates were prepared and named [NT], Blank60 and NCF60, respectively. […] No test compound or control compound was added to Blank60 plate, and samples were taken after incubation for 60 min. NCF60 plate was incubated with a potassium phosphate buffer instead of an NADPH regeneration system solution (Sigma, N0505) for 60 min. […] Only the microsome working solution was added to Blank60 plate, and the incubation plates Blank60, T5, T15, T30, T45 and T60 except T0 and NCF60 were then placed in a water bath at 37° C. and pre-incubated for about 10 min. To the samples of T0 plate, 600 μL of a stop solution (acetonitrile:methanol (95:5, v/v) solution containing 100 ng/mL of tolbutamide (Sigma, T0891)) was added first, and the NADPH regeneration system working solution was then added. 98 μL of a potassium phosphate buffer was added to each well of NCF60 plate and incubated for 60 min. After the pre-incubation in the incubation plates Blank60, T5, T15, T30, T45 and T60 was completed, 98 μL of the NADPH regeneration system working solution was added to each sample well to initiate the reaction. After an appropriate incubation time (such as 5, 15, 30, 45 and 60 min), 600 μL of a stop solution was added to each sample well and the control sample well in Blank60, […] the reaction. All the sample plates were shaken uniformly and centrifuged at 3220×g for 20 min. 200 μL of test sample supernatant was separately taken and diluted in 200 μL of an aqueous solution containing 0.3% formic acid for LC-MS/MS analysis, and 100 μL of control sample supernatant was taken and diluted in 300 μL of pure water for LC-MS/MS analysis. Calculation was performed according to the following formula: [formula] [formula] [formula] [formula] [formula] [formula]
# ERα = ERα (Homo sapiens (Human), UniProt P03372); test: Degradation effect of compound on ERα (ERα DuoSet IC ELISA in MCF-7 cells); type: cell-based; details: 24 h with compound; for DC50: read-out: IC50 value of ERα degradation by compound
# Procedure: In this test example, ERα DuoSet IC ELISA Kit (R&D, DYC5715) was used to detect the degradation effect of the compound on ERα. On the first day of the experiment, human breast cancer cells MCF-7 (the source was as above) were inoculated into a 24-well plate. The culture medium was an MEM culture medium containing 10% of activated-carbon-treated FBS (Tocyto, UT61204), 1% of pyruvic acid and 1% of nonessential amino acid. The inoculation density was 150,000 cells/well. The cells were cultured at 37° C., 5% CO2 for 24 h.
# On the second day of the experiment, the compound to be tested was diluted in gradient and added to a 24-well plate containing cells. The cells were cultured for 24 h at 37° C., 5% CO2. ERα capture antibody was diluted to 1 μg/ml with PBS (Corning, 21-040-CVR) and added to a 96-well plate at 100 μL/well, and the plate was […] coated overnight at room temperature.
# On the third day of the experiment, the coated 96-well plate was washed three times with PBS, 300 μL of a blocking solution (R&D, DY995) was added to each well, and the plate was blocked at room temperature for 1 h. The 24-well plate was washed once with PBS, and the residual liquid was sucked off. […] The diluted cell lysate was taken and added to the blocked 96-well plate, with 100 μL per well, and incubated at room temperature for 2 h. The plate was washed three times with a washing solution (R&D, WA126), and a primary antibody was then added. After incubation for 1 h, the 96-well plate was washed four times, a secondary antibody was added, and incubation was carried out at room temperature in the dark for 30 min. The plate was washed four times with the washing solution, and TMB (R&D, DY999) was added. After 15 minutes of development, the reaction was terminated with a stop solution (R&D, DY994), and the light absorption at 450 nm was read.
# [3] = human liver microsomes, microsome protein 1 mg/mL working solution, NADPH
# [4] = human liver microsomes, scaled to liver
# ERα, sequence (P03372 whole entry): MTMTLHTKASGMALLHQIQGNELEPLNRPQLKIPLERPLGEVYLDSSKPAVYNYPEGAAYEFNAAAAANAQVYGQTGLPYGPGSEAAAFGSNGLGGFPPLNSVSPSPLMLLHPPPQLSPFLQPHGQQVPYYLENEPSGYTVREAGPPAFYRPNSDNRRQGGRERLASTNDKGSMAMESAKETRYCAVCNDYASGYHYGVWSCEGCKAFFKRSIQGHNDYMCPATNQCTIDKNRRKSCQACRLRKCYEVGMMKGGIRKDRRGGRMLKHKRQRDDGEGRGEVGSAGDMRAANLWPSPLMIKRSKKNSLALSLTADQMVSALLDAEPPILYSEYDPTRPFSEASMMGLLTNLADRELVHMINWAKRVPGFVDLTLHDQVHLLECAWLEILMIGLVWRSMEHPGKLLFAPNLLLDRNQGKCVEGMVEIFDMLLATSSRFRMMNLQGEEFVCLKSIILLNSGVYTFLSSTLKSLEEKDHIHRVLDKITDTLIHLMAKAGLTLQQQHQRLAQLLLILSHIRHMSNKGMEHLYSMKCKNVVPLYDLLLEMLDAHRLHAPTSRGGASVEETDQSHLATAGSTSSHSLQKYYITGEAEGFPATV
compound,measurement,setting,value
"C[C@@H]1Cc2c([nH]c3ccccc23)[C@@H](c2c(F)cc(/C=C/C(=O)O)cc2F)N1CC(C)(C)F [AZD9496, reference compound]",IC50,"[1]; Homo sapiens, MCF7",3.84 nM
"C[C@@H]1Cc2c(ccc3[nH]ncc23)[C@@H](c2ccc(NC3CN(CCCF)C3)cn2)N1CC(F)(F)F [AZD9833, reference compound]",IC50,"[1]; Homo sapiens, MCF7",2.45 nM
same,half-life,[2]; [3],80 min
same,CLint scaled,[2]; [4],15.6 mL/min/kg
same,microsomal CLint,[2]; human liver microsomes,17.3 µL/min/mg
"C[C@@H]1Cc2c(ccc3[nH]ncc23)[C@@H](c2c(F)cc(OCCN3CC(CF)C3)cc2F)N1CC(C)(C)F [Comparative Compound 1, (6S,8R)-6-(2,6-difluoro-4-(2-(3-(fluoromethyl)azetidin-1-yl)ethoxy)phenyl)-7-(2-fluoro-2-methylpropyl)-8-methyl-6,7,8,9-tetrahydro-3H-benzopyrazolo[4,3-f]isoquinoline, reference compound]",IC50,[1],2.68 nM
same,T1/2,[2]; [3],42.2 min
same,CLint(liver),[2]; [4],29.6 mL/min/kg
same,CLint(mic),"[2]; human, microsomes",32.9 µL/min/mg
same,IC50,ERα,1.89 nM
"C[C@@H]1Cc2c(ccc3[nH]c(=O)oc23)[C@@H](c2ccc(NC3CN(CCCF)C3)cn2)N1CC(F)(F)F [Example 5, (6S,8R)-6-(5-((1-(3-fluoropropane)azetidin-3-yl)amino)pyridin-2-yl)-8-methyl-7-(2,2,2-trifluoroethyl)-6,7,8,9-tetrahydrooxazolo[5,4-f]isoquinolin-2(3H)-one]",half-life,[2]; [3],75.5 min
same,CLint scaled,[2]; [4],16.5 mL/min/kg
same,microsomal CLint,[2]; human liver microsomes,18.4 µL/min/mg
"C[C@@H]1Cc2c(ccc3[nH]c(=O)oc23)[C@@H](c2c(F)cc(N3CC4(CN(CCF)C4)C3)cc2F)N1CC(F)(F)F [Example 8, (6S,8R)-6-(2,6-difluoro-4-(6-(2-fluoroethyl)-2,6-diazspiro[3.3]hept-2-yl)phenyl)-8-methyl-7-(2,2,2-trifluoroethyl)-6,7,8,9-tetrahydrooxazolo[5,4-f]isoquinolin-2(3H)-one]",half-life,[2]; [3],85.9 min
same,CLint scaled,[2]; [4],14.5 mL/min/kg
same,microsomal CLint,[2]; human liver microsomes,16.1 µL/min/mg
C[C@@H]1Cc2c(ccc3[nH]c(=O)oc23)[C@@H](c2c(F)cc(O[C@H]3CCN(CCCF)C3)cc2F)N1CC(F)(F)F [Example 11],IC50,"[1]; Homo sapiens, MCF7",0.38 nM
same,DC50,ERα,0.62 nM
"C[C@@H]1Cc2c(ccc3[nH]c(=O)oc23)[C@@H](c2c(F)cc(O[C@H]3CCN(CCCF)C3)cc2F)N1CC(F)(F)CO [Example 13, (6S,8R)-7-(2,2-difluoro-3-hydroxypropyl)-6-(2,6-difluoro-4-(((S)-1-(3-fluoropropane)pyrrolidin-3-yl)oxy)phenyl)-8-methyl-6,7,8,9-tetrahydrooxazolo[5,4-f]isoquinolin-2(3H)-one]",IC50,"[1]; Homo sapiens, MCF7",0.3 nM
same,DC50,ERα,0.23 nM
"C[C@@H]1Cc2c(ccc3[nH]c(=O)oc23)[C@@H](c2c(F)cc(OCCNC/C=C/C(=O)N(C)C)cc2F)N1CC(F)(F)F [Example 16, (E)-4-((2-(3,5-difluoro-4-((6S,8R)-8-methyl-2-oxy-7-(2,2,2-trifluoroethyl)-2,3,6,7,8,9-hexahydrooxazolo[5,4-f]isoquinolin-6-yl)phenoxy)ethyl)amino)-N,N-dimethylbut-2-enamide]",IC50,"[1]; Homo sapiens, MCF7",0.8 nM
"C[C@@H]1Cc2c(ccc3[nH]c(=O)oc23)[C@@H](c2ncc(NC3CN(CCCF)C3)cc2F)N1CC(F)(F)F [Example 27, (6S,8R)-6-(3-fluoro-5-((1-(3-fluoropropyl)azetidin-3-yl)amino)pyridin-2-yl)-8-methyl-7-(2,2,2-trifluoromethyl)-6,7,8,9-tetrahydroxazolo[5,4-f]isoquinolin-2(3H)-one]",IC50,"[1]; Homo sapiens, MCF7",1.63 nM
"COc1cc(NC2CN(CCCF)C2)cnc1[C@@H]1c2ccc3[nH]c(=O)oc3c2C[C@@H](C)N1CC(F)(F)F [Example 28, (6S,8R)-6-(5-((1-(3-fluoropropyl)azetidin-3-yl)amino)-3-methoxypyridin-2-yl)-8-methyl-7-(2,2,2-trifluoroethyl)-6,7,8,9-tetrahydroxazolo[5,4-f]isoquinolin-2(3H)-one]",IC50,"[1]; Homo sapiens, MCF7",0.4 nM
"C[C@@H]1Cc2c(ccc3[nH]c(=O)oc23)[C@@H](c2ccc(O[C@H]3CCN(CCCF)C3)cn2)N1CC(F)(F)F [Example 29, (6S,8R)-6-(5-(((S)-1-(3-fluoropropane)pyrrolidin-3-yl)oxy)pyridin-2-yl)-8-methyl-7-(2,2,2-trifluoroethyl)-6,7,8,9-tetrahydrooxazolo[5,4-f]isoquinolin-2(3H)-one]",IC50,"[1]; Homo sapiens, MCF7",0.71 nM
"C[C@@H]1Cc2c(ccc3[nH]c(=O)oc23)[C@@H](c2c(F)cc(NC3CN(C/C=C/C(=O)N(C)C)C3)cc2F)N1CC(F)(F)F [Example 35, (E)-4-(3-((3,5-difluoro-4-((6S,8R)-8-methyl-2-oxo-7-(2,2,2-trifluoroethyl)-2,3,6,7,8,9-hexahydrooxazolo[5,4-f]isoquinolin-6-yl)phenyl)amino)azetidin-1-yl)-N,N-dimethylbut-2-enamide]",IC50,"[1]; Homo sapiens, MCF7",0.82 nM
C[C@@H]1Cc2c(ccc3[nH]c(=O)oc23)[C@@H](c2c(F)cc(O[C@@H]3CCN(C/C=C/C(=O)N(C)C)C3)cc2F)N1CC(F)(F)F [Example 37],IC50,"[1]; Homo sapiens, MCF7",0.61 nM
"C[C@@H]1Cc2c(ccc3[nH]c(=O)oc23)[C@@H](c2ccc(OCCCN3CCN(CCNc4cccc5c4CN(C4CCC(=O)NC4=O)C5=O)CC3)cn2)N1CC(F)(F)F (stereo partly drawn) [Example 43, 3-(4-((2-(4-(3-((6-((6S,8R)-8-methyl-2-oxo-7-(2,2,2-trifluoroethyl)-2,3,6,7,8,9-hexahydrooxazolo[5,4-f]isoquinolin-6-yl)pyridin-3-yl)oxy)propyl)piperazin-1-yl)ethyl)amino)-1-oxoisoindolin-2-yl)piperidine-2,6-dione]",IC50,"[1]; Homo sapiens, MCF7",0.69 nM
same,DC50,ERα,0.63 nM
"(E)-4-((S)-3-((3,5-difluoro4-((6S,8R)-8-methyl-2-oxo-7-(2,2,2-trifluoroethyl)-2,3,6,7, 8,9-hexahydrooxazolo[5,4-f]isoquinolin-6-yl)phenoxy)pyrrolidin-1-yl)-N,N-dimethylbut-2-enamide [Example 39]",IC50,[1],0.49 nM
